Target: T1, human TRPV4 (Homo sapiens, UniProt Q9HBA0)
T1 construct: host or cells: tetracycline-inducible Flp-In T-REx 293 cells
Test: Hypotonicity-induced Ca2+ influx (Fluo-4, FDSS)
Format: cell-based
Experimental: Hypotonicity-Induced Ca^2+ Influx
TRPV4 channel activation/opening results in an influx of Ca^2+ (Liedtke, W. et al., 2000 (NPL 1)). The resulting changes in intracellular calcium are monitored using a Ca^2+ sensitive fluorescent dye Fluo-4 (Invitrogen). Dye loaded cells are treated with the test compounds for 5 minutes prior to the addition of a hypotonic solution and the inhibition of the hypotonicity-induced activation is recorded.
Forty microL of tetracycline-inducible Flp-In T-REx 293 cells (Invitrogen) stably expressing human TRPV4 are seeded onto the poly-D-lysine coated 384-well plate (Corning) at a density of 10,000 cells per well. The following day, TRPV4 expression is induced by adding 0.5 microg/mL tetracycline for 20-24 hours. On the day of the experiment, the media is removed and replaced with 40 microL of dye loading buffer [1 microM Fluo-4 AM (Invitrogen), 0.01% Pluronic F-127, and 20 mM HEPES in Hanks' balanced salt solutions (HBSS; Invitrogen)] and then the cells are incubated for 60 minutes at 25° C. Dye is then removed and replaced with 20 microL of assay buffer (20 mM HEPES in HBSS). Five minutes prior to the fluorescence measurement, 10 microL of test compound is added to the cells. Using the FDSS instrument (Hamamatsu Photonics), 30 microL of hypotonic solution (90 mM D-mannitol and 1.26 mM CaCl2 in ultrapure water) is added 30 seconds after the start of measurement. The calcium flux signal is recorded for a total of 4.5 minutes.

[1] = Flp-In T-REx 293 cells expressing human TRPV4, examples listed under heading 'Human IC50<50 nM'
[2] = Flp-In T-REx 293 cells stably expressing human TRPV4, compounds listed by potency bin (<10 nM Tables 96-1/96-2, <3 nM Table 97)

T1 sequence (Q9HBA0 whole entry): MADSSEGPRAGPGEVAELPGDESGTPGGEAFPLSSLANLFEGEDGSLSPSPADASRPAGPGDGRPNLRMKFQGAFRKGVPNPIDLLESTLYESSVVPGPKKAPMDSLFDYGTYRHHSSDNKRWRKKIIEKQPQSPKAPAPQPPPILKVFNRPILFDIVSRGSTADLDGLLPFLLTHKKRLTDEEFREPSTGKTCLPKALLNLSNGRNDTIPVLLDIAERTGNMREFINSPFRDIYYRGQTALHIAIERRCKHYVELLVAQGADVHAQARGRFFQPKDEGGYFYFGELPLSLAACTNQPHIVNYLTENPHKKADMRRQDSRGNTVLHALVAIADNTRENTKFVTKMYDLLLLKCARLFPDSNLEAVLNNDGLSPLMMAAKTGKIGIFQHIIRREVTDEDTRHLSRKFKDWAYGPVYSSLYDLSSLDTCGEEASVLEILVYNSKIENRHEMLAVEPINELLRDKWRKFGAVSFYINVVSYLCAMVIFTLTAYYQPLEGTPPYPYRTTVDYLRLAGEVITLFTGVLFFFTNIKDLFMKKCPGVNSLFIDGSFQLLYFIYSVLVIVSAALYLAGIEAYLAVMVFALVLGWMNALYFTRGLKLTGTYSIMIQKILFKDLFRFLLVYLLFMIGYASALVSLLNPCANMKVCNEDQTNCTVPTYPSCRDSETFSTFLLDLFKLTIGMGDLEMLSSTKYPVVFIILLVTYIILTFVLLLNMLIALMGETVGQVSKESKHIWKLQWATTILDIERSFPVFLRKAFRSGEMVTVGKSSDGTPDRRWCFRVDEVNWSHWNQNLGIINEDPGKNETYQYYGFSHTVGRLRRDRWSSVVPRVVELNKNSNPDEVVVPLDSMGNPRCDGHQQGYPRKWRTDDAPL

SMILES | IC50 [1] | IC50 [2]
O=C(C(O)c1cccc(-c2cnc3ccccc3c2)c1)N1CCCc2nc(C3(c4cccc(Cl)c4)CC3)[nH]c(=O)c2C1 (centres unmarked) [17-19] | < 0.05 µM | < 0.01 µM
O=C(C(O)c1cccc(-c2cccc(F)c2)c1)N1CCc2nc(C3(c4cccc(F)c4)CC3)[nH]c(=O)c2C1 (centres unmarked) [14-19] | < 0.05 µM | –
O=C([C@H](O)c1cccc(C(F)(F)F)c1)N1CCCc2nc(C3(c4cccc(C5CCOCC5)c4)CC3)[nH]c(=O)c2C1 [31-7] | < 0.05 µM | < 0.01 µM
O=C(C(O)c1cccc(C2CC2)c1)N1CCc2nc(C3(c4cccc(Cl)c4)CC3)[nH]c(=O)c2C1 (centres unmarked) [14-15] | < 0.05 µM | –
CC(C)c1cccc(C(O)C(=O)N2CCCc3nc(C4(c5ccccc5)CC4)[nH]c(=O)c3C2)c1 (centres unmarked) [17-59] | < 0.05 µM | –
O=C(Cc1cccc(-c2ccc(OC(F)(F)F)cc2)c1)N1CCCc2nc(C3(c4cccc(Cl)c4)CC3)[nH]c(=O)c2C1 [17-129] | < 0.05 µM | < 0.01 µM
O=C(Cc1ccccc1-c1ccccc1)N1CCCc2nc(C3(c4cccc(Cl)c4)CC3)[nH]c(=O)c2C1 [17-80] | < 0.05 µM | –
O=C(C(O)c1cccc(S(F)(F)(F)(F)F)c1)N1CCc2nc(C3(c4cccs4)CC3)[nH]c(=O)c2C1 (centres unmarked) [15-13] | < 0.05 µM | –
CC(C)c1cccc(C2(c3nc4c(c(=O)[nH]3)CN(C(=O)C(F)(F)c3cccc(Cl)c3)CCC4)CC2)c1 [20-8] | < 0.05 µM | < 0.01 µM
O=C(C(O)c1cccc(Oc2ccccc2)c1)N1CCc2nc(C3(c4cccc(Cl)c4)CC3)[nH]c(=O)c2C1 (centres unmarked) [14-21] | < 0.05 µM | –
O=C(C(O)c1cccc(C(F)(F)F)c1F)N1CCCc2nc(C3(c4cccc(Cl)c4)CC3)[nH]c(=O)c2C1 (centres unmarked) [17-4] | < 0.05 µM | < 0.003 µM
CC(C)c1cccc(C2(c3nc4c(c(=O)[nH]3)CN(C(=O)[C@H](O)c3cccc(C(F)(F)F)c3)CC4)CC2)c1 [27-1] | < 0.05 µM | < 0.01 µM
O=C(C(O)c1cccc(S(F)(F)(F)(F)F)c1)N1CCCc2nc(C3(c4cccs4)CC3)[nH]c(=O)c2C1 (centres unmarked) [18-8] | < 0.05 µM | < 0.01 µM
O=C(C(O)c1cccc(SC(F)(F)F)c1)N1CCc2nc(C3(c4ccccc4)CC3)[nH]c(=O)c2C1 (centres unmarked) [14-25] | < 0.05 µM | –
O=C(CCc1ccccc1)N1CCC(c2cccc(C3(c4nc5c(c(=O)[nH]4)CN(C(=O)[C@H](O)c4cccc(C(F)(F)F)c4)CCC5)CC3)c2)CC1 [31-11] | < 0.05 µM | < 0.003 µM
O=C([C@H](O)c1cccc(C(F)(F)F)c1)N1CCc2nc(C3(c4cccs4)CC3)[nH]c(=O)c2C1 [15-18] | < 0.05 µM | –
O=C(C(O)c1cccc(S(F)(F)(F)(F)F)c1)N1CCc2nc(C3(c4ccccc4)CC3)[nH]c(=O)c2C1 (centres unmarked) [14-31] | < 0.05 µM | –
CC(C)c1csc(C2(c3nc4c(c(=O)[nH]3)CN(C(=O)C(O)c3cccc(SC(F)(F)F)c3)CCC4)CC2)c1 (centres unmarked) [18-19] | < 0.05 µM | < 0.01 µM
CC(C)c1cccc(C2(c3nc4c(c(=O)[nH]3)CN(C(=O)[C@H](O)c3cccc(Cl)c3)CC4)CC2)c1 [14-13] | < 0.05 µM | < 0.01 µM
O=C([C@H](O)c1cccc(C(F)(F)F)c1)N1CCCc2nc(C3(c4cncc(C5CCCCC5)c4)CC3)[nH]c(=O)c2C1 [19-1] | < 0.05 µM | < 0.003 µM
O=C(C(O)c1cccc(-c2cccc(F)c2)c1)N1CCc2nc(C3(c4cccc(Cl)c4)CC3)[nH]c(=O)c2C1 (centres unmarked) [14-12] | < 0.05 µM | < 0.01 µM
O=C(C(O)c1cccc(SC(F)(F)F)c1)N1CCCc2nc(C3(c4ccccc4)CC3)[nH]c(=O)c2C1 (centres unmarked) [17-38] | < 0.05 µM | < 0.01 µM

Other lines, results leading:

IC50 [1] | IC50 [2] | SMILES
< 0.05 µM | < 0.003 µM | CC(C)c1cccc(-c2cccc([C@@H](O)C(=O)N3CCCc4nc(C5(c6cccc(Cl)c6)CC5)[nH]c(=O)c4C3)c2)c1 [50-9]
< 0.05 µM | < 0.01 µM | N#Cc1cncc(-c2cccc(C3(c4nc5c(c(=O)[nH]4)CN(C(=O)[C@H](O)c4cccc(C(F)(F)F)c4)CCC5)CC3)c2)c1 [42-19]
< 0.05 µM | – | O=C(C(O)c1cccc(-c2cc(F)ccc2Cl)c1)N1CCc2nc(C3(c4ccccc4)CC3)[nH]c(=O)c2C1 (centres unmarked) [44-28]
< 0.05 µM | < 0.01 µM | O=C(C(O)c1cccc(-c2cccc(OC(F)(F)F)c2)c1)N1CCc2nc(C3(c4ccccc4)CC3)[nH]c(=O)c2C1 (centres unmarked) [44-1, 6-(2-hydroxy-2-(3′-(trifluoromethoxy)-[1,1′-biphenyl]-3-yl)acetyl)-2-(1-phenylcyclopropyl)-5,6,7,8-tetrahydropyrido[4,3-d]pyrimidin-4(3H)-one]
< 0.05 µM | < 0.01 µM | O=C([C@H](O)c1cccc(C(F)(F)F)c1)N1CCCc2nc(C3(c4cccc(-c5ccc(N6CCCC6)nc5)c4)CC3)[nH]c(=O)c2C1 [42-51]
< 0.05 µM | < 0.01 µM | O=C(Cc1cccc(-c2cccc(C(F)(F)F)c2)c1)N1CCCc2nc(C3(c4ccccc4)CC3)[nH]c(=O)c2C1 [57-3]
< 0.05 µM | – | O=C(c1csc(C2(c3nc4c(c(=O)[nH]3)CN(C(=O)[C@H](O)c3cccc(C(F)(F)F)c3)CCC4)CC2)c1)N1Cc2ccccc2C1 [59-4]
< 0.05 µM | < 0.003 µM | O=C([C@H](O)c1cccc(-c2ccc(OC(F)(F)F)cc2)c1)N1CCCc2nc(C3(c4ccccc4)CC3)[nH]c(=O)c2C1 [49-33]
< 0.05 µM | – | CC(C)Oc1ccc(-c2cccc(C(O)C(=O)N3CCc4nc(C5(c6ccccc6)CC5)[nH]c(=O)c4C3)c2)cc1 (centres unmarked) [44-38]
< 0.05 µM | < 0.003 µM | CC(C)c1cccc(-c2cccc([C@@H](O)C(=O)N3CCCc4nc(C5(c6ccccc6)CC5)[nH]c(=O)c4C3)c2)c1 [49-50]
< 0.05 µM | – | O=C(C(O)c1cccc(-c2ccc(F)c(F)c2)c1)N1CCc2nc(C3(c4ccccc4)CC3)[nH]c(=O)c2C1 (centres unmarked) [44-49]
< 0.05 µM | < 0.01 µM | O=C([C@H](O)c1cccc(-c2ccc(OC(F)(F)F)cc2)c1)N1CCCc2nc(C3(c4cccc(Cl)c4)CC3)[nH]c(=O)c2C1 [50-26]
< 0.05 µM | < 0.01 µM | O=C([C@H](O)c1cccc(-c2cc(Cl)cc(Cl)c2)c1)N1CCc2nc(C3(c4ccccc4)CC3)[nH]c(=O)c2C1 [44-100]
< 0.05 µM | < 0.01 µM | O=C([C@H](O)c1cccc(Cl)c1)N1CCc2nc(C3(c4cccc(-c5cnsc5)c4)CC3)[nH]c(=O)c2C1 [34-2]
< 0.05 µM | < 0.003 µM | O=C([C@H](O)c1cccc(-c2ccnc(C(F)(F)F)c2)c1)N1CCc2nc(C3(c4ccccc4)CC3)[nH]c(=O)c2C1 [44-79]
< 0.05 µM | < 0.01 µM | O=C([C@H](O)c1cccc(C(F)(F)F)c1)N1CCCc2nc(C3(c4cccc(-c5cccc(F)c5)c4)CC3)[nH]c(=O)c2C1 [42-58]
< 0.05 µM | < 0.003 µM | O=C([C@H](O)c1cccc(Cl)c1)N1CCCc2nc(C3(c4cccc(-c5cc6ccccc6o5)c4)CC3)[nH]c(=O)c2C1 [40-17]
< 0.05 µM | < 0.01 µM | O=C([C@H](O)c1cccc(C(F)(F)F)c1)N1CCCc2nc(C3(c4cccc(C5=CCN(S(=O)(=O)Cc6ccccc6)CC5)c4)CC3)[nH]c(=O)c2C1 [42-78]
< 0.05 µM | < 0.003 µM | O=C([C@H](O)c1cccc(Cl)c1)N1CCCc2nc(C3(c4cccc(-c5csc6ccccc56)c4)CC3)[nH]c(=O)c2C1 [40-11]
< 0.05 µM | < 0.003 µM | O=C([C@H](O)c1cccc(-c2cc3ccccc3o2)c1)N1CCCc2nc(C3(c4ccccc4)CC3)[nH]c(=O)c2C1 [49-25]
< 0.05 µM | < 0.003 µM | O=C([C@H](O)c1cccc(-c2cc3ccccc3s2)c1)N1CCc2nc(C3(c4ccccc4)CC3)[nH]c(=O)c2C1 [44-95]
< 0.05 µM | < 0.01 µM | O=C([C@H](O)c1cccc(-c2cccc(Cl)c2)c1)N1CCCc2nc(C3(c4cncc(C5CCCCC5)c4)CC3)[nH]c(=O)c2C1 [55-13]
< 0.05 µM | < 0.01 µM | O=C([C@H](O)c1cccc(-c2cccc(SC(F)(F)F)c2)c1)N1CCCc2nc(C3(c4ccccc4)CC3)[nH]c(=O)c2C1 [49-53]
< 0.05 µM | < 0.003 µM | O=C([C@H](O)c1cccc(-c2ccc(F)c(Cl)c2)c1)N1CCCc2nc(C3(c4ccccc4)CC3)[nH]c(=O)c2C1 [49-30]
< 0.05 µM | < 0.01 µM | O=C(C(O)c1cccc(-c2cc(C(F)(F)F)cc(C(F)(F)F)c2)c1)N1CCCc2nc(C3(c4ccccc4)CC3)[nH]c(=O)c2C1 (centres unmarked) [49-2]
< 0.05 µM | < 0.01 µM | O=C([C@H](O)c1cccc(C(F)(F)F)c1)N1CCCc2nc(C3(c4cccc(-c5ccc(F)c(F)c5)c4)CC3)[nH]c(=O)c2C1 [42-62]
< 0.05 µM | < 0.01 µM | O=C([C@H](O)c1cccc(-c2cccc(F)c2)c1)N1CCCc2nc(C3(c4cccc(C5CCCCC5)c4)CC3)[nH]c(=O)c2C1 [52-1]
< 0.05 µM | < 0.01 µM | CC(C)N(Cc1ccccc1)C(=O)c1csc(C2(c3nc4c(c(=O)[nH]3)CN(C(=O)[C@H](O)c3cccc(C(F)(F)F)c3)CCC4)CC2)c1 [59-1]
< 0.05 µM | < 0.01 µM | CC(C)c1cccc(C2(c3nc4c(c(=O)[nH]3)CN(C(=O)[C@H](O)c3cccc(-c5cccc(Cl)c5)c3)CCC4)CC2)c1 [51-4]
